For 15 compounds, logP results are on record in the OPERA property sets (Mansouri et al. 2018).

As for `NC1=NCC(CN2CCN(c3ccc(Cl)cc3)CC2)O1` (stereo not given), the logP (as a rule, the decadic logarithm of the partition coefficient of the neutral form, usually between octanol and water) was found to be 1.71.

In the case of `Cc1ccc(N2CCN(CC3CN=C(N)O3)CC2)cc1` (stereo not given), the logP was determined as 1.23. Take `COc1ccc(N2CCN(CC3CN=C(N)O3)CC2)cc1` (stereo not given): the logP was determined as 0.68. The figure for `NC1=NCC(CN2CCN(c3ccccc3)CC2)O1` (stereo not given) is 0.85. `NC1=NCC(CN2CCN(c3ccc(Cl)c(Cl)c3)CC2)O1` (stereo not given) showed a logP of 2.4. The figure for `CCOc1ccccc1N1CCN(CC2CN=C(N)O2)CC1` (stereo not given) is 1.21; for `NC1=NCC(CN2CCN(c3ccccc3Cl)CC2)O1` (stereo not given) it is 1.87; for `COc1cccc(N2CCN(CC3CN=C(N)O3)CC2)c1` (stereo not given) it is 0.87. `COc1ccccc1N1CCN(CC2CN=C(N)O2)CC1` (stereo not given) came in with a logP of 0.76.

`NC1=NCC(CN2CCN(c3cccc(C(F)(F)F)c3)CC2)O1` (stereo not given) gave a logP of 2.21. The result for `NC1=NCC(CN2CCN(c3ccccn3)CC2)O1` (stereo not given) reads 0.48; that for `NC1=NCC(CN2CCN(c3cccc(Cl)c3)CC2)O1` (stereo not given), 1.83. The figure for `NC1=NCC(CN2CCN(c3ccc(F)cc3)CC2)O1` (stereo not given) is 1; for `NC1=NCC(CN2CCN(c3ncccn3)CC2)O1` (stereo not given) it is 0.21; for `Cc1cccc(N2CCN(CC3CN=C(N)O3)CC2)c1C` (stereo not given) it is 2.19.
